Laboratory results reported in ChEMBL document CHEMBL1147930, “Selective inhibition of the interaction of C1q with immunoglobulins and the classical pathway of complement activation by steroids and triterpenoids sulfates” (Bioorg Med Chem, 2007).
Where a name gives a salt, the structure may show the parent alone.

Key:
[1] = Toxicity in sheep erythrocytes assessed as intrinsic hemolytic activity; assay type: cell-based, Ovis aries, Erythrocyte; details: read-out: ED50 (the source's name)
[2] = Inhibition of classical pathway of complement activation in sheep erythrocytes in presence of guinea-pig serum; assay type: functional, cell-based, Ovis aries; details: erythrocyte
[3] = Inhibition of C1q immunoglobulin interaction by hemolytic method; set-up: species or system Homo sapiens
[4] = Inhibition of classical pathway of complement activation in sheep erythrocytes in presence of human serum; assay type: functional, cell-based, Ovis aries; details: erythrocyte
[5] = Inhibition of C1q immunoglobulin interaction by ELISA; set-up: species or system Homo sapiens
[6] = Inhibition of alternative pathway of complement activation in rabbit erythrocytes in presence of human serum; assay type: functional, cell-based, Oryctolagus cuniculus; details: erythrocyte

Row | Compound | IC50 [2] | HC50 [1] | Ki [3] | IC50 [4] | Ki [5] | IC50 [6]
1 | C[C@H](CCC(=O)O)[C@H]1CC[C@H]2[C@@H]3CC=C4C[C@@H](OS(=O)(=O)O)CC[C@]4(C)[C@H]3CC[C@]12C | 23.7 µM | > 400 µM | – | – | – | –
2 | C=C(C)[C@@H]1CC[C@]2(COP(=O)(O)O)CC[C@]3(C)[C@H](CC[C@@H]4[C@@]5(C)CC[C@H](OP(=O)(O)O)C(C)(C)[C@@H]5CC[C@]43C)[C@@H]12 [BETULIN DIPHOSPHATE] | 42.6 µM | > 800 µM | – | – | – | –
3 | C=C(C)[C@@H]1CC[C@]2(C(=O)O)CC[C@]3(C)[C@H](CC[C@@H]4[C@@]5(C)CC[C@H](OS(=O)(=O)O)C(C)(C)[C@@H]5CC[C@]43C)[C@@H]12 [BETULINIC ACID SULFATE] | 9.9 µM | > 900 µM | 14.6 µM | 53.8 µM | 57.3 µM | 640 µM
4 | C[C@H](CCC(=O)O)[C@H]1CC[C@H]2[C@@H]3[C@H](OS(=O)(=O)O)C[C@@H]4C[C@H](OS(=O)(=O)O)CC[C@]4(C)[C@H]3C[C@H](OS(=O)(=O)O)[C@]12C [CHOLIC ACID TRISULFATE] | 101 µM | > 1400 µM | – | – | – | –
5 | CC1(C)CC[C@]2(C(=O)O)CC[C@]3(C)C(=CCC4[C@@]5(C)CC[C@H](OS(=O)(=O)O)C(C)(C)[C@@H]5CC[C@]43C)[C@@H]2C1 (some centres not stated) [OLEANOLIC ACID SULFATE] | – | 15 µM | – | – | – | –

Further lines, with some results ahead:

Row | IC50 [2] | Compound | HC50 [1] | Ki [3] | IC50 [4] | Ki [5] | IC50 [6]
6 | 410 µM | C[C@]12CC[C@H]3[C@@H](CC=C4C[C@@H](OS(=O)(=O)O)CC[C@@]43C)[C@@H]1CC[C@@H]2C(=O)O | > 1600 µM | – | – | – | –
7 | 6.8 µM | CC1(C)[C@@H](OS(=O)(=O)O)CC[C@]2(C)[C@H]3CC[C@@H]4[C@H]5[C@H](C6(C)CC6(Cl)Cl)CC[C@]5(COS(=O)(=O)O)CC[C@@]4(C)[C@]3(C)CC[C@@H]12 (some centres not stated) | 85 µM | – | – | – | –
8 | 6.9 µM | C=C(C)[C@@H]1CC[C@]2(COS(=O)(=O)O)CC[C@]3(C)[C@H](CC[C@@H]4[C@@]5(C)CC[C@H](OS(=O)(=O)O)C(C)(C)[C@@H]5CC[C@]43C)[C@@H]12 [BETULIN DISULFATE] | 850 µM | 8.6 µM | 14.6 µM | 42.2 µM | 414 µM
9 | 186 µM | C[C@H](CCC(=O)O)[C@H]1CC[C@H]2[C@@H]3CC[C@@H]4C[C@H](OS(=O)(=O)O)CC[C@]4(C)[C@H]3C[C@H](OS(=O)(=O)O)[C@]12C [DEOXYCHOLIC ACID DISULFATE] | > 1600 µM | – | – | – | –
10 | 25.2 µM | C[C@H]1[C@H](C)CC[C@]2(C(=O)O)CC[C@]3(C)C(=CC[C@@H]4[C@@]5(C)CC[C@H](OS(=O)(=O)O)C(C)(C)[C@@H]5CC[C@]43C)[C@H]12 [URSOLIC ACID SULFATE] | > 900 µM | – | – | – | –
